Data on ten substances can be found in patent publication US20220023386A1, “METHOD FOR THE TREATMENT OR PREVENTION OF OSTEOARTHRITIS” (Chondropeptix B.V., priority 2016, published 2022).

Holding throughout (assay type): cell-based, human
For assay [1], the system named is OA articular chondrocytes. Nature of the assay: Expression of OA chondrocyte phenotype marker genes by RT-qPCR after peptide exposure. The arrangement: key: [+] denotes a significantly increased expression of chondrogenic marker BAPX1/NKX3.2 or a decreased expression of OA chondrocyte phenotypic markers ALP, MMP13, ADAMTS5, COX2, COL10A and RUNX2 in OA articular chondrocytes, in comparison to untreated OA articular chondrocytes.; [−] denotes the absence of a significant effort or a significantly decreased expression of chondrogenic marker BAPX1/NKX3.2 or an increased expression of OA chondrocyte phenotypic markers ALP, MMP13, ADAMTS5, COX2, COL10A and RUNX2 in OA articular chondrocytes, in comparison to untreated OA articular chondrocytes. The conditions noted are these: Table 2 (FIGS. 2-8), peptide 10 nM, 24 hours, vs untreated OA articular chondrocytes. How it is done: (§1) The action of 20-mer peptides (10 nM) of SEQ ID NO: 2-15 (peptides with 1 amino acids intervals (19 amino acid overlap)) and SEQ ID NO:49 on the expression of the indicated genes was determined on a validated pool of passage 2 OA human articular chondrocytes (n=18) and compared to full-length recombinant BMP-7 (1 nM). Samples were harvested after 24 hours and analyzed for indicated genes by RT-qPCR (corrected for 28S rRNA expression and relative to control conditions (no peptide exposure)). In the graphs, numbers on the x-axis represent individual peptides according to their SEQ ID NO:, error bars represent mean±SEM, statistical differences were calculated (one-way ANOVA with bonferroni correction) to control condition. *=p<0.05 lower than control condition for COL10A1, ALP, RUNX2, COX-2, MMP13 and ADAMTS5 and higher than control condition for BAPX1/NKX3.2. Random peptide is a peptide according to SEQ ID NO: 49 with amino acid sequence […].
On the technique in general: In qPCR the cycle at which signal appears reflects the starting amount.

For assay [2], the system named is OA articular chondrocytes. Described as above. The arrangement: key to ADAMTS5 expression: [+] denotes a significantly increased expression of chondrogenic marker BAPX1/NKX3.2 or a decreased expression of OA chondrocyte phenotypic markers ALP, MMP13, ADAMTS5, COX2, COL10A and RUNX2 in OA articular chondrocytes, in comparison to untreated OA articular chondrocytes.; [−] denotes the absence of a significant effort or a significantly decreased expression of chondrogenic marker BAPX1/NKX3.2 or an increased expression of OA chondrocyte phenotypic markers ALP, MMP13, ADAMTS5, COX2, COL10A and RUNX2 in OA articular chondrocytes, in comparison to untreated OA articular chondrocytes. The conditions noted are these: Table 3, N- and C-terminally truncated peptides; vs untreated OA articular chondrocytes.

The subject of assay [3] is OA articular chondrocytes. The description is as above. The following applies: vs untreated OA articular chondrocytes. Also on record: key: [+] denotes a significantly increased expression of chondrogenic marker BAPX1/NKX3.2 or a decreased expression of OA chondrocyte phenotypic markers ALP, MMP13, ADAMTS5, COX2, COL10A and RUNX2 in OA articular chondrocytes, in comparison to untreated OA articular chondrocytes.; [−] denotes the absence of a significant effort or a significantly decreased expression of chondrogenic marker BAPX1/NKX3.2 or an increased expression of OA chondrocyte phenotypic markers ALP, MMP13, ADAMTS5, COX2, COL10A and RUNX2 in OA articular chondrocytes, in comparison to untreated OA articular chondrocytes.

The subject of assay [4] is OA articular chondrocytes. The description is as above. The arrangement: key: [—] denotes the absence of a significant effect or a significantly decreased expression of chondrogenic marker BAPX1/NKX3.2 or an increased expression of OA chondrocyte phenotypic markers ALP, MMP13, ADAMTS5, COX2, COL10A and RUNX2 in OA articular chondrocytes, in comparison to untreated OA articular chondrocyts. The conditions noted are these: Table 1, 20-mer peptides with native cysteines; vs untreated OA articular chondrocytes. How it is done:
as §1

Assay [5] has as its system OA articular chondrocytes. Described as above. The conditions noted are these: Table 1, 20-mer peptides with native cysteines; vs untreated OA articular chondrocytes. Also on record: key: [—] denotes the absence of a significant effect or a significantly decreased expression of chondrogenic marker BAPX1/NKX3.2 or an increased expression of OA chondrocyte phenotypic markers ALP, MMP13, ADAMTS5, COX2, COL10A and RUNX2 in OA articular chondrocytes, in comparison to untreated OA articular chondrocyts. This is another data set of the same source.

In assay [6] the test system is Isolated chondrocytes from OA patients. The assay is described as follows: Treatment of isolated chondrocytes from OA patients, gene expression via qRT-PCR. The following applies: 1 nM, 24 h, n=6. How it is done: Isolated chondrocytes from OA patients (n=6) were treated with BMP-7 (1 nM) or the 12-mer peptide according to SEQ ID NO: 16 (1 nM) for 24 h. Pro-chondrogenic (FIG. 9A) and hypertrophic (FIGS. 9B, 9C and 9D) gene expression was determined via qRT-PCR and normalized for 28S rRNA levels.

The test system of assay [7] is cartilage explants from OA patient's knee articular cartilage. Nature of the assay: Treatment of cartilage explants, hypertrophic gene expression via qRT-PCR. The conditions noted are these: BMP-7 1 nM, SEQ ID NO: 16 10 nM, 24 h. How it is done:
4 mm2 cartilage explants were taken from non-lesion areas of OA patient's knee articular cartilage (n=5) and randomly assigned to different experimental treatment conditions (4 explants per treatment group). After a 24 h equilibration period the explants were treated with BMP-7 (1 nM) or the 12-mer peptide according to SEQ ID NO: 16 (10 nM) for 24 h. Hypertrophic gene expression was determined via qRT-PCR and normalized for 28S rRNA levels. After treatment with BMP-7 or the 12 mer we observed a downregulation of pro-hypertrophic genes, such as Col10a1 (FIG. 10A) and MMP13 (FIG. 10B).

[8] abbreviates: Table 3, N- and C-terminally truncated peptides.

Consider “16 (YSEGESAFPLNS; homo sapiens) [compound 16]”, for which, in assay [1], the ADAMTS5 expression entry is listed as “+”, the ALP expression entry is given as “+”, the BAPX1/NKX3.2 expression result is listed as “+” and the COL10A expression entry is on record as “+”. In assay [1], the COX-2 expression result was “+” and the RUNX2 expression entry is reported as “+”. Further, the ADAMTS5 expression entry in assay [2] is on record as “+”. The MMP13 expression entry in assay [3] (Table 2 (FIGS. 2-8), peptide 10 nM, 24 hours) was “+”. Moreover, in assay [3] (setting [8]), the ALP expression result is “+”, the BAPX1/NKX3.2 expression entry was “+”, the COL10A expression result is “+” and the COX-2 expression entry is “+”. For the same substance, the RUNX2 expression entry in assay [3] (setting [8]) is “+”.
“38 (EALRMANVAENSSSDQRQAC; homo sapiens) [compound 38]”: the ADAMTS5 expression result in assay [4] was “—”. Also, in assay [5], the ALP expression result is listed as “—”, the BAPX1/NKX3.2 expression entry was “—”, the COL10A expression entry is listed as “—” and the COX-2 expression entry is on record as “—”. In addition, in assay [5], the MMP13 expression result is “—” and the RUNX2 expression result is reported as “—”.
As to “41 (FPLNSYMNATNHAIVQTLVH; homo sapiens) [compound 41]”, in assay [4], the ADAMTS5 expression entry is given as “—”. In assay [5], the ALP expression result is given as “—”, the BAPX1/NKX3.2 expression entry is “—”, the COL10A expression result was “—” and the COX-2 expression result was “—”. Also, in assay [5], the MMP13 expression entry is recorded as “—” and the RUNX2 expression entry is “—”.
Turning to “42 (VHFINPETVPKPCCAPTQLN; homo sapiens) [compound 42]”, in assay [4], the ADAMTS5 expression entry was “—”. Moreover, in assay [5], the ALP expression result is recorded as “—”, the BAPX1/NKX3.2 expression entry is listed as “—”, the COL10A expression result is reported as “—” and the COX-2 expression entry was “—”. Moreover, in assay [5], the MMP13 expression entry is on record as “—” and the RUNX2 expression result was “—”.
Regarding “40 (WIIAPEGYAAYYCEGECAFP; homo sapiens) [compound 40]”, the ADAMTS5 expression result in assay [4] is “—”. For the same substance, in assay [5], the ALP expression result is on record as “—”, the BAPX1/NKX3.2 expression entry was “—”, the COL10A expression entry is reported as “—” and the COX-2 expression result was “—”. Further, in assay [5], the MMP13 expression entry is listed as “—” and the RUNX2 expression result is recorded as “—”.
For the substance “YSEGESAFPLNS (homo sapiens) [SEQ ID NO: 16]”, in assay [6], the “COL10A1 gene expression (pro-hypertrophic)” value is reported as “downregulation”, the “COX-2 gene expression (pro-hypertrophic)” value is “downregulation”, the “Col2a1 gene expression (pro-chondrogenic)” value is recorded as “upregulation” and the “RUNX2 gene expression (pro-hypertrophic)” value was “downregulation”. In assay [7], the Col10a1 gene expression result is recorded as “downregulation” and the MMP13 gene expression result was “downregulation”.
As for “39 (ACKKHELYVSFRDLGWQDWI; homo sapiens) [compound 39]”, the ADAMTS5 expression result in assay [4] is “—”. In assay [5], the ALP expression entry is given as “—”, the BAPX1/NKX3.2 expression result was “—”, the COL10A expression result is given as “—” and the COX-2 expression result was “—”. For the same substance, in assay [5], the MMP13 expression entry is on record as “—” and the RUNX2 expression result is recorded as “—”.
For “26 (YSEGESAFPLNSY; homo sapiens) [compound 26]”, in assay [2], the ADAMTS5 expression result is recorded as “+”. Moreover, in assay [3] (setting [8]), the ALP expression entry is reported as “+”, the BAPX1/NKX3.2 expression entry was “+”, the COL10A expression entry is “+” and the COX-2 expression result is “+”. Besides, in assay [3] (setting [8]), the MMP13 expression entry is “+” and the RUNX2 expression entry was “+”.
“43 (LNAISVLYFDDSSNVILKKY; homo sapiens) [compound 43]”: the ADAMTS5 expression entry in assay [4] is reported as “—”. Besides, in assay [5], the ALP expression entry is on record as “—”, the BAPX1/NKX3.2 expression entry was “—”, the COL10A expression result was “—” and the COX-2 expression entry was “—”. In assay [5], the MMP13 expression result is “—” and the RUNX2 expression result is on record as “—”.
Take “44 (SSNVILKKYRNMVVRACGCH; homo sapiens) [compound 44]”: the ADAMTS5 expression result in assay [4] is reported as “—”. Further, in assay [5], the ALP expression result was “—”, the BAPX1/NKX3.2 expression entry is given as “—”, the COL10A expression result is recorded as “—” and the COX-2 expression result was “—”. Also, in assay [5], the MMP13 expression result was “—” and the RUNX2 expression result is reported as “—”.
